Assay results taken from patent US20240252428A1, “METHODS OF PROVIDING BIRTH CONTROL” (THE POPULATION COUNCIL, INC., priority 2021, published 2024).

How the values were obtained:
[1] = PK study in females with BMI <25 vs BMI >25; type: in vivo, human; details: 18 females BMI <25 vs 21 females BMI >25
Text: The vaginal system described herein has not been adequately evaluated in females with a body mass index of >29 kg/m2. […] Higher body weight associates with lower systemic exposure of SA and EE.

[2] = Recoverable SA and EE after storage; type: physicochemical; details: for amount recoverable from the vaginal system: over 24 months of storage at 25° C. and 60% relative humidity
Description: This was quite surprising as a similar trend was not observed during long-term stability studies on the cores before assembly.
• Diluent: methanol/water 58/42 v/v • Dried NES and EE before weighing (100-105° C. 3 h) • EE stock solution: Dissolved 25.0 mg of EE and diluted to 250.0 mL with methanol (duplicates, EE1 and EE2) • NES stock solution: Dissolved 50.0 mg of NES and diluted to 100.0 mL with methanol (duplicates, NES1 and NES2) • Standard solutions: • S1: Diluted 5.0 mL of NES1 and 4.0 mL of EE1 to 50.0 mL with diluent • S2: Diluted 6.0 mL of NES2 and 5.0 mL of EE2 to 50.0 mL with diluent • S3: Diluted 8.0 mL of NES1 and 7.0 mL of EE1 to 50.0 mL with diluent • S4: Diluted 10.0 mL of NES2 and 9.0 mL of EE2 to 50.0 mL with diluent • System suitability solution (SST solution): Diluted 5.0 mL acetone+7.0 mL NES1+6.0 mL EE1 to 50.0 mL with diluent.
Rings were cut into 8 pieces and each piece was divided lengthwise then transferred to an Erlenmeyer flask. • 140 mL of acetone (weight of flask was noted before and after acetone addition) was added to the flask.
• analytical column: Discovery C8, 5 μm, 150×4.6 mm (Supelco) • pre-column: Supelguard, Discovery C8, 5 μm, 20×4.0 mm (Supelco) • stationary phase: endcapped C8 (5 μm particle size) USP L7 • temperature: 30° ° C. Mobile phase: methanol/water 58/42, isocratic elution Flow rate: 1.2 mL/min Detection (assay): NES UV 240 nm, EE UV 280 nm Detection (identity): PDA (photodiode array detector) scanning 220-310 nm, NES 240 nm, EE 280 nm
Run time: 15 min System suitability: SST solution • Area precision (n=5): RSD (%)≤2.0 • Peak tailing (T): 0.8≤T≤1.5 • Blank injections: No interfering peaks Retention times: EE approximately 7 min and NES approximately 9 min Results Assay: Report the average value of three different rings and express as mg EE/ring and mg NES/ring. Results Content uniformity: Calculate the average value of ten different rings. Report with or without remarks according the guidelines outlined in the US Pharmacopeial Convention, incorporated herein by reference, and in particular USP <905>. […]

[3] = PK sub-study of the vaginal system over 13 product-use cycles (21 days in/7 days out), serum SA and EE; type: in vivo, human; parameters: AUC0-21 day / AUC0-1 day: concentration or dose not given beside the values
Description: The pharmacokinetics (PK) of the vaginal system described herein were determined during studies related to the prior approved use (i.e., 13 product-use cycles comprising a 21-day “product-in” period and a 7-day “product-out” period). Studies were conducted in 39 women who used the system for up to the 13 product-use cycles. […] Over subsequent product-use cycles, the peak serum concentrations of SA and EE declined.
During a phase 3 trial of the vaginal ring system, three centers participated in a PK sub-study. The PK sub-study was an open-label, multicenter, non-randomized phase 1 study evaluating the PK and pharmacodynamics (PD) of a self-administered vaginal ring system. Enrolled women were healthy, aged 18-38 years, who had regular cycles of 28±7 days and were sexually active with no intention of becoming pregnant for the following 13 months. Exclusion criteria were those typical for oral contraceptive assessments. Women were not permitted to use hormonal contraceptives (other than the study vaginal ring) or vaginal lubricants that could have interfered with steroid absorption during the study.
Women were instructed to use the SA/EE vaginal ring system for 13 consecutive cycles following a 21-days-in and 7-days-out regimen, with the initial ring insertion (day 1 of cycle 1) under investigator supervision at the study clinic. […] In the PK substudy, blood samples from each woman were collected 8 times (see below) per assessed cycles (1, 3, and 13) as per the protocol.
For serum SA and EE measurements, blood samples were collected on treatment days 1-5, 8, 15, and 22 during cycles 1, 3, and 13 with the serum stored at −20° C. Steroid concentrations were determined at each time point using a validated gas chromatography/tandem mass spectrometry (GC-MS/MS; Taylor Technology, Princeton, NJ); the lower limits of quantification (LLOQ) were 50 pg/mL (135 pmol/L) for SA and 10 pg/mL (33.74 pmol/L) for EE. The linear calibration range was 50.0 to 5000 pg/mL for SA and 10.0 to 1000 pg/mL for EE. The inter-assay coefficient of variation for SA was 7-15.5% and for EE 8-13% for low, medium, and high-quality control samples used during assays. The intra-assay coefficient of variation for both SA and EE was lower than 12%.

[4] = Drug-drug interaction study with vaginal miconazole formulations; type: in vivo; details: for overall increase in exposure: with 1 day or 3-day oil-based miconazole suppository; for change in exposure from the vaginal system: with water-based vaginal miconazole cream
Text: However, the use of either the 1 day or the 3-day oil-based miconazole suppository was associated with an overall increase in exposure up to 67% for EE and 32% for SA. Considering the potential long-term effect on vaginal system performance, concurrent use of oil-based vaginal suppositories should not occur with the system's use. If there is a need to treat a vaginal condition, water-based vaginal cream or oral therapy may be used concurrently with the vaginal system.

[5] = target: T1, progesterone receptor (Homo sapiens, UniProt P06401); assay: Progesterone receptor activity of SA metabolites; type: biochemical
T1 sequence (P06401 1-933): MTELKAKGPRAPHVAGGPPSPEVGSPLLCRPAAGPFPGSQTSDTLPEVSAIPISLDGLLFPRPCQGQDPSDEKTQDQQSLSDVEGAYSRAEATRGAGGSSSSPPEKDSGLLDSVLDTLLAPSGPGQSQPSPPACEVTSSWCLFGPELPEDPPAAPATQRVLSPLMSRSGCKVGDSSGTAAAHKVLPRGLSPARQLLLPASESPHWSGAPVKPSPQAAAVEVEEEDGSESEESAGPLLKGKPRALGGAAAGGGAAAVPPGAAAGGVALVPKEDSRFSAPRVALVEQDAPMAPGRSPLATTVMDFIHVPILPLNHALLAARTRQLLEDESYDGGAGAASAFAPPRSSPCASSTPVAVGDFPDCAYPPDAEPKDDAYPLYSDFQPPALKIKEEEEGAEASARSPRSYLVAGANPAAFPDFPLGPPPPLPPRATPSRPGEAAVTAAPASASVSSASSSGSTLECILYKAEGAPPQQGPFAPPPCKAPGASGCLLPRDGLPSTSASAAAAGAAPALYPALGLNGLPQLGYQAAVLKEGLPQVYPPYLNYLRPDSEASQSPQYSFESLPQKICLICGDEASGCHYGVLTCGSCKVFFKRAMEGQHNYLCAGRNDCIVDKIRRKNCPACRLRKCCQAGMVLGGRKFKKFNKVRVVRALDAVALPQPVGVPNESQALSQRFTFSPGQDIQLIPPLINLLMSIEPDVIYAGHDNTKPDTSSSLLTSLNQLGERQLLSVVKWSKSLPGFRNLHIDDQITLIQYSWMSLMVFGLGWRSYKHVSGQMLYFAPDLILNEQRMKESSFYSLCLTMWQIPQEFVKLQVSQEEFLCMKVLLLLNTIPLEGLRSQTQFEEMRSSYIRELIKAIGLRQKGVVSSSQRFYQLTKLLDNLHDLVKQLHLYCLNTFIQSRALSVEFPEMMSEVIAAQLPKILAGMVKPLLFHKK
Text: The hydroxylated EE metabolites have weak estrogenic activity.

[6] = EE in serum, cycle 1, mean (SD)
[7] = EE in serum, cycle 3, mean (SD)
[8] = EE in serum, cycle 13, mean (SD)

C#C[C@]1(O)CC[C@H]2[C@@H]3CCc4cc(O)ccc4[C@H]3CC[C@@]21C [EE, 19-nor-17α-pregna-1,3,5(10)-trien-20-yne-3,17-diol]
decrease in systemic exposure (AUC 0-21 day) between the two BMI groups [1]: ≤ 33%
amount recoverable from the core by extraction ([2]; cores before assembly, after extended storage): full amount of EE was found to be recoverable
amount recoverable from the vaginal system [2]: decreased in a time-dependent manner
Cavg ([3]; EE in serum, cycle 1, mean): 0.148 nM
Cmax ([3]; EE in serum, cycle 1, mean): 0.435 nM
AUC0-1 day [3, 6]: 7,077 (2,359) pmol*hr/L
AUC0-21 day [3, 6]: 74,814 (33,026) pmol*hr/L
Cavg ([3]; EE in serum, cycle 3, mean): 0.098 nM
AUC0-1 day [3, 7]: 3,033 (1,348) pmol*hr/L
AUC0-21 day [3, 7]: 49,539 (15,839) pmol*hr/L
Cavg ([3]; EE in serum, cycle 13, mean): 0.064 nM
AUC0-1 day [3, 8]: 2,359 (1,011) pmol*hr/L
AUC0-21 day [3, 8]: 32,352 (13,817) pmol*hr/L
Cmax ([3]; female, human, serum, other: vaginal, EE in serum, cycle 3, mean): 0.202 nM
Cmax ([3]; female, human, serum, other: vaginal, EE in serum, cycle 13, mean): 0.131 nM
Tmax ([3]; female, human, serum, vaginal administration, product-use cycles 1, 3 and 13, read-out: median Tmax): ~2 h
overall increase in exposure [4]: up to 67%
change in exposure from the vaginal system [4]: no change

C=C1C[C@H]2[C@@H]3CCC4=CC(=O)CC[C@@H]4[C@H]3CC[C@]2(C)[C@@]1(OC(C)=O)C(C)=O [SA, 16-methylene-17α-acetoxy-19-nor-pregn-4-ene-3,20-dione]
decrease in systemic exposure (AUC 0-21 day) between the two BMI groups [1]: up to 16%
amount recoverable from the vaginal system [2]: remained essentially constant
AUC0-21 day ([3]; SA in serum, cycle 1, mean): 259,740 pmol*hr/L
Cavg ([3]; SA in serum, cycle 1, mean): 0.516 nM
Cmax ([3]; SA in serum, cycle 1, mean): 3.1 nM
AUC0-1 day ([3]; SA in serum, cycle 1, mean (SD)): 40,500 (8,640) pmol*hr/L
AUC0-21 day ([3]; SA in serum, cycle 3, mean): 480,330 pmol*hr/L
Cavg ([3]; SA in serum, cycle 3, mean): 0.3537 nM
Cmax ([3]; SA in serum, cycle 3, mean): 0.98 nM
AUC0-1 day ([3]; SA in serum, cycle 3, mean (SD)): 36,450 (4,320) pmol*hr/L
AUC0-21 day ([3]; SA in serum, cycle 13, mean): 127,440 pmol*hr/L
Cavg ([3]; SA in serum, cycle 13, mean): 0.254 nM
Cmax ([3]; SA in serum, cycle 13, mean): 0.794 nM
AUC0-1 day ([3]; SA in serum, cycle 13, mean (SD)): 10,530 (3,780) pmol*hr/L
overall increase in exposure [4]: ≤ 32%
change in exposure from the vaginal system [4]: no change

C=C1CC2C3CCC4CC(=O)CCC4C3CCC2(C)C1(OC(C)=O)C(C)=O (stereo not drawn) [5α-dihydro]
EC50 to progesterone receptor, fold higher than that of SA [5]: 10 fold
